Experimental data as given in US20160018400A1, “DIAGNOSTIC AND PROGNOSTIC BIOMARKERS FOR PROSTATE CANCER AND OTHER DISORDERS” (CANCER RESEARCH TECHNOLOGY LIMITED, priority 2013, published 2016).

Key:
LNCaP cells = assay: Confocal microscopy of VPS13A vesicle association/fusion with LAMP2-positive lysosomes; format: cell-based
Experimental: FIG. […] The cells were then fixed and stained for LAMP2 and VPS13A. Using the 100× lens, the number of lysosomes in 10 fields of view were counted. Then the number of VPS13A fusion events was counted in the same field of view. A fusion event was classed as a VPS13A vesicle touching or integrated into a LAMP2 positive lysosome. *Data are shown normalised to the number of lysosomes in each field of view. P-values were calculated using a Mann-Whitney 2-tailed t-test.
Cells were fixed and stained as before using anti-VPS13A antibody (1:50, Human Protein Atlas) and LAMP2 antibody (1:500, BD Biosciences) (8). Cells were imaged using Alexafluor 594 and 488 secondary antibodies (Molecular Probes) and mounted with DAPI. All images were obtained using a Nikon Eclipse confocal microscope using a 100× objective. […]

VPS13A = VPS13A protein expression in LNCaP cells after calcium modifiers (SDS-PAGE / western blot); format: cell-based; conditions: LNCaP cells treated for 8 hours with 10 μM; lysates probed for VPS13A and tubulin
Experimental: Non-targeting control LNCaP cells or siVPS13A cells were treated for 8 hours with 10 μM BAPTA (B), calcimycin (Cal) or control (C). Protein lysates were separated by SDS-PAGE and probed for VPS13A and tubulin.
Cells were fixed and stained as before using anti-VPS13A antibody (1:50, Human Protein Atlas) and LAMP2 antibody (1:500, BD Biosciences) (8). Cells were imaged using Alexafluor 594 and 488 secondary antibodies (Molecular Probes) and mounted with DAPI. All images were obtained using a Nikon Eclipse confocal microscope using a 100× objective. For calcium modifying experiments, LNCaP cells were grown as before to ˜50% confluence before being treated for 8 hours with 10 μM of the calcium ionophore, calcimycin (Invitrogen) or 10 μM of the calcium chelating agent 1,2-bis(o-aminophenoxy)ethane-N,N,N′,N′-tetraacetic acid (BAPTA) (Invitrogen) (Whitaker et al., 2007).
Protein lysates were produced as described (8) and separated by SDS-PAGE before blotting for VPS13A (1:1000, Human Protein Atlas), FAK (1:1000, Cell Signaling Technology), pTyr397-FAK (1:1000, Cell Signaling Technology) or tubulin (1:2000, Abcam).

CO/C1=C\C(C)=C\[C@@H](C)[C@@H](O)[C@@H](C)C/C(C)=C/C=C/[C@H](OC)[C@@H]([C@@H](C)[C@@H](O)[C@H](C)[C@@]2(O)C[C@@H](O)[C@H](C)[C@@H](C(C)C)O2)OC1=O [bafilomycin]
VPS13A vesicle integration into the lysosome membrane (LNCaP cells; cells treated with bafilomycin, LAMP2 staining): VPS13A vesicles are seen integrated into the lysosome membrane

O=C(O)CN(CC(=O)O)c1ccccc1OCCOc1ccccc1N(CC(=O)O)CC(=O)O [BAPTA, 1,2-bis(o-aminophenoxy)ethane-N,N,N′,N′-tetraacetic acid]
intracellular levels of VPS13A (VPS13A protein expression) (VPS13A): no significant change in VPS13A expression

CNc1ccc2oc(C[C@H]3O[C@@]4(CC[C@H]3C)O[C@H]([C@H](C)C(=O)c3ccc[nH]3)[C@H](C)C[C@H]4C)nc2c1C(=O)O [calcimycin]
number of VPS13A vesicles that associated with lysosomes (fusion events, normalised to number of lysosomes) (LNCaP cells; LNCaP cells, LAMP2 and VPS13A staining, p=0.0004): highly significant decrease
intracellular levels of VPS13A (VPS13A protein expression) (VPS13A): increase in the intracellular levels of VPS13A
